Experimental data reported in ChEMBL document CHEMBL5728348, “1 H-pyrazol-1-yl-thiazoles as inhibitors of lactate dehydrogenase and methods of use thereof” (2021).

Assay: Biochemical Assay: Test compounds were placed in a Greiner Bio-One (Monroe, N.C.) 1536-well black solid bottom assay plate. 200 millimolar (mM) Tris HCl, pH 7.4, 100 micromolar (μM) EDTA and 0.01% TWEEN-20, final concentration, was used as the assay buffer. The LDHA reagent was 2 nanomolar (nM) Human LDHA (Meridian Life Science, Inc., Memphis, Tenn.), final concentration, in assay buffer. The substrate reagent was 0.06 mM NADH and 0.2 mM sodium pyruvate, final concentration, in assay buffer. The resazurin/diaphorase coupling reagent was 0.037 mM resazurin and 0.133 milligrams per milliliter (mg/mL) diaphorase, final concentration, in assay buffer. The inhibition of LDHA activity was measured by fluorescence emission.

Row | Structure (SMILES) | IC50
1 | N#Cc1ccc(-c2cccc(-c3nn(-c4nc(C(=O)O)cs4)c(CC4CC4)c3Cc3ccc([SH+](N)[O-])c(F)c3)c2)cc1 (stereo not drawn) | < 100 nM
2 | N[S+](=O)([O-])c1ccc(Cc2c(-c3cccc(-c4ccc(C(F)(F)C(F)(F)F)cc4)c3)nn(-c3nc(C(=O)O)cs3)c2CCC2CC2)cc1F | in the range around 550 nM
3 | N[SH+]([O-])c1ccc(Cc2c(-c3cccc(-c4ccc(Cl)cc4)c3)nn(-c3nc(C(=O)O)cs3)c2CC2CC2)cc1F (stereo not drawn) | < 100 nM
4 | N[SH+]([O-])c1ccc(Cc2c(-c3cccc(C#Cc4ccc(Cl)s4)c3)nn(-c3nc(C(=O)O)cs3)c2CC2CC2)cc1F (stereo not drawn) | < 100 nM
5 | Cc1ccc(C#Cc2cc(-c3nn(-c4nc(C(=O)O)cs4)c(CC4CC4)c3Cc3ccc([SH+](N)[O-])c(F)c3)ccc2F)s1 (stereo not drawn) | < 100 nM
6 | N[SH+]([O-])c1ccc(Cc2c(-c3cccc(-c4cc(F)cc(F)c4)c3)nn(-c3nc(C(=O)O)cs3)c2CC2CC2)cc1F (stereo not drawn) | < 100 nM
7 | Cc1cnc(C#Cc2cccc(-c3nn(-c4nc(C(=O)O)cs4)c(CC4CC4)c3Cc3ccc([SH+](N)[O-])c(F)c3)c2)o1 (stereo not drawn) | < 100 nM
8 | Cc1ncc(C#Cc2cc(-c3nn(-c4nc(C(=O)O)cs4)c(CC4CC4)c3Cc3ccc([SH+](N)[O-])c(F)c3)ccc2F)s1 (stereo not drawn) | < 100 nM
9 | N[S+](=O)([O-])c1ccc(Cc2c(-c3ccc(F)c(C4=CCC5(CC4)CC5)c3)nn(-c3nc(C(=O)O)cs3)c2CC2CC2)cc1F | < 100 nM
10 | Cc1ccc(C#Cc2cccc(-c3nn(-c4nc(C(=O)O)cs4)c(C4CC45CC5)c3Cc3ccc([SH+](N)[O-])c(F)c3)c2)s1 (stereo not drawn) | < 100 nM
11 | Cc1ccc(-c2cccc(-c3nn(-c4nc(C(=O)O)cs4)c(CC4CC4)c3Cc3ccc([SH+](N)[O-])c(F)c3)c2)cc1F (stereo not drawn) | < 100 nM
12 | Cc1ccc(C#Cc2cccc(-c3nn(-c4nc(C(N)=O)cs4)c(CC4CC4)c3Cc3ccc([SH+](N)[O-])c(F)c3)c2)s1 (stereo not drawn) | in the range around 29000 nM
13 | Cc1cnc(C#Cc2cc(-c3nn(-c4nc(C(=O)O)cs4)c(CC4CC4)c3Cc3ccc([SH+](N)[O-])c(F)c3)ccc2F)s1 (stereo not drawn) | < 100 nM
14 | CC(C)c1ccc(C#Cc2cccc(-c3nn(-c4nc(C(=O)O)cs4)c(CC4CC4)c3Cc3ccc([SH+](N)[O-])c(F)c3)c2)s1 (stereo not drawn) | in the range around 550 nM
15 | Cc1ccc(C#Cc2cccc(-c3nn(-c4nc(B(O)O)cs4)c(CC4CC4)c3Cc3ccc([SH+](N)[O-])c(F)c3)c2)s1 (stereo not drawn) | in the range around 29000 nM
16 | N[S+](=O)([O-])c1ccc(Cc2c(-c3cccc(-c4ccc5c(c4)CCCC5)c3)nn(-c3nc(C(=O)O)cs3)c2CC2CC2)cc1F | in the range around 550 nM
17 | COC1CC=C(c2cc(-c3nn(-c4nc(C(=O)O)cs4)c(CC4CC4)c3Cc3ccc([SH+](N)[O-])c(F)c3)ccc2F)CC1 (stereo not drawn) | < 100 nM
18 | N[S+](=O)([O-])c1ccc(Cc2c(-c3ccc(F)c(-c4ccc5c(c4)CCC5)c3)nn(-c3nc(C(=O)O)cs3)c2CC2CC2)cc1F | < 100 nM
19 | CC(C)c1cccc(-c2cccc(-c3nn(-c4nc(C(=O)O)cs4)c(CC4CC4)c3Cc3ccc([SH+](N)[O-])c(F)c3)c2)c1 (stereo not drawn) | < 100 nM
20 | N[S+](=O)([O-])c1ccc(Cc2c(-c3ccc(F)c(-c4cc(Cl)cc(Cl)c4)c3)nn(-c3nc(C(=O)O)cs3)c2CC2CC2)cc1F | in the range around 550 nM
21 | CC(C)N1CC2(CN(c3cc(-c4nn(-c5nc(C(=O)O)cs5)c(CC5CC5)c4Cc4ccc([SH+](N)[O-])c(F)c4)ccc3F)C2)C1 (stereo not drawn) | < 100 nM

Row | Structure (SMILES) | IC50
22 | Cc1ncc(-c2cc(-c3nn(-c4nc(C(=O)O)cs4)c(CC4CC4)c3Cc3ccc([SH+](N)[O-])c(F)c3)ccc2F)[nH]1 (stereo not drawn) | < 100 nM
23 | Cc1ccc(C#Cc2cccc(-c3nn(-c4nc(C(=O)O)cs4)c(CCC4CC4)c3Cc3ccc([SH+](N)[O-])c(F)c3)c2)s1 (stereo not drawn) | < 100 nM
24 | Cc1ccc(-c2cc(-c3nn(-c4nc(C(=O)O)cs4)c(CC4CC4)c3Cc3ccc([SH+](N)[O-])c(F)c3)ccc2F)cc1F (stereo not drawn) | < 100 nM
25 | Cc1cc(-c2cccc(-c3nn(-c4nc(C(=O)O)cs4)c(CC4CC4)c3Cc3ccc([SH+](N)[O-])c(F)c3)c2)ccc1Cl (stereo not drawn) | in the range around 29000 nM
26 | Cc1ccc(C#Cc2cccc(-c3nn(-c4nc(C(=O)O)cs4)c(CC4(C)CC4)c3Cc3ccc([SH+](N)[O-])c(F)c3)c2)s1 (stereo not drawn) | < 100 nM
27 | N[S+](=O)([O-])c1ccc(Cc2c(-c3ccc(F)c(-c4ccc(F)c(F)c4)c3)nn(-c3nc(C(=O)O)cs3)c2CC2CC2)cc1F | < 100 nM
28 | CC1CC=C(c2cc(-c3nn(-c4nc(C(=O)O)cs4)c(CC4CC4)c3Cc3ccc([SH+](N)[O-])c(F)c3)ccc2F)CC1 (stereo not drawn) | < 100 nM
29 | N[SH+]([O-])c1ccc(Cc2c(-c3cccc(C#Cc4ccc(C5CC5)s4)c3)nn(-c3nc(C(=O)O)cs3)c2CC2CC2)cc1F (stereo not drawn) | in the range around 550 nM
30 | Cc1ccsc1C#Cc1cccc(-c2nn(-c3nc(C(=O)O)cs3)c(CC3CC3)c2Cc2ccc([SH+](N)[O-])c(F)c2)c1 (stereo not drawn) | < 100 nM
31 | CC(C)c1ccc(-c2cccc(-c3nn(-c4nc(C(=O)O)cs4)c(CCC4CC4)c3Cc3ccc([S+](N)(=O)[O-])c(F)c3)c2)cc1 | in the range around 550 nM
32 | N[S+](=O)([O-])c1ccc(Cc2c(-c3ccc(F)c(-c4cc(F)cc(F)c4)c3)nn(-c3nc(C(=O)O)cs3)c2CC2CC2)cc1F | < 100 nM
33 | CC(C)Cc1ccc(-c2cccc(-c3nn(-c4nc(C(=O)O)cs4)c(CCC4CC4)c3Cc3ccc([S+](N)(=O)[O-])c(F)c3)c2)cc1 | in the range around 550 nM
34 | COc1ccc(-c2cccc(-c3nn(-c4nc(C(=O)O)cs4)c(CC4CC4)c3Cc3ccc([SH+](N)[O-])c(F)c3)c2)cc1C (stereo not drawn) | < 100 nM
35 | N[SH+]([O-])c1ccc(Cc2c(-c3cccc(-c4ccc(C5CC5)c(F)c4)c3)nn(-c3nc(C(=O)O)cs3)c2CC2CC2)cc1F (stereo not drawn) | in the range around 29000 nM
36 | CC1(C)CC=C(c2cc(-c3nn(-c4nc(C(=O)O)cs4)c(CC4CC4)c3Cc3ccc([SH+](N)[O-])c(F)c3)ccc2F)CC1 (stereo not drawn) | < 100 nM
37 | COc1ccc(-c2cc(-c3nn(-c4nc(C(=O)O)cs4)c(CC4CC4)c3Cc3ccc([SH+](N)[O-])c(F)c3)ccc2F)cc1C (stereo not drawn) | < 100 nM
38 | Cc1ccc(/C=C/c2cccc(-c3nn(-c4nc(C(=O)O)cs4)c(CC4CC4)c3Cc3ccc([SH+](N)[O-])c(F)c3)c2)s1 (stereo not drawn) | < 100 nM
39 | N[SH+]([O-])c1ccc(Cc2c(-c3ccc(F)c(C4=CCCO4)c3)nn(-c3nc(C(=O)O)cs3)c2CC2CC2)cc1F (stereo not drawn) | < 100 nM
40 | N[SH+]([O-])c1ccc(Cc2c(-c3cccc(-c4cccc(Cl)c4)c3)nn(-c3nc(C(=O)O)cs3)c2CC2CC2)cc1F (stereo not drawn) | < 100 nM
41 | CC1CCCC=C1c1cc(-c2nn(-c3nc(C(=O)O)cs3)c(CC3CC3)c2Cc2ccc([SH+](N)[O-])c(F)c2)ccc1F (stereo not drawn) | < 100 nM
42 | N[S+](=O)([O-])c1ccc(Cc2c(-c3ccc(F)c(C4=CCC(C(F)(F)F)CC4)c3)nn(-c3nc(C(=O)O)cs3)c2CC2CC2)cc1F (stereo not drawn) | < 100 nM

Row | Structure (SMILES) | IC50
43 | N[SH+]([O-])c1ccc(Cc2c(-c3cccc(C#Cc4ccc(C(F)F)s4)c3)nn(-c3nc(C(=O)O)cs3)c2CC2CC2)cc1F (stereo not drawn) | < 100 nM
44 | N[S+](=O)([O-])c1ccc(Cc2c(-c3ccc(F)c(-c4ccc(Cl)cc4)c3)nn(-c3nc(C(=O)O)cs3)c2CC2CC2)cc1F | < 100 nM
45 | Cc1ccc(C#Cc2cc(-c3nn(-c4nc(C(=O)O)cs4)c(CCC4CC4)c3Cc3ccc([SH+](N)[O-])c(F)c3)ccc2F)s1 (stereo not drawn) | < 100 nM
46 | N[S+](=O)([O-])c1ccc(Cc2c(-c3ccc(F)c(-c4cccc(Cl)c4)c3)nn(-c3nc(C(=O)O)cs3)c2CC2CC2)cc1F | < 100 nM
47 | COc1cc(OC)cc(-c2cc(-c3nn(-c4nc(C(=O)O)cs4)c(CC4CC4)c3Cc3ccc([SH+](N)[O-])c(F)c3)ccc2F)c1 (stereo not drawn) | < 100 nM
48 | N[S+](=O)([O-])c1ccc(Cc2c(-c3ccc(F)c(-c4nc5ccccc5[nH]4)c3)nn(-c3nc(C(=O)O)cs3)c2CC2CC2)cc1F | < 100 nM
49 | N[S+](=O)([O-])c1ccc(Cc2c(-c3ccc(F)c(C4=CCCCC4)c3)nn(-c3nc(C(=O)O)cs3)c2CC2CC2)cc1F | < 100 nM
50 | Cc1ccc(C#Cc2cccc(-c3nn(-c4nc(C(=O)O)cs4)c(CC4CC4)c3Cc3ccc([SH+](N)[O-])c(F)c3)c2)o1 (stereo not drawn) | < 100 nM
51 | Cc1cc(C)c(C#Cc2cccc(-c3nn(-c4nc(C(=O)O)cs4)c(CC4CC4)c3Cc3ccc([SH+](N)[O-])c(F)c3)c2)s1 (stereo not drawn) | < 100 nM
52 | N[SH+]([O-])c1ccc(Cc2c(-c3cccc(C#Cc4ccc(C(F)(F)F)s4)c3)nn(-c3nc(C(=O)O)cs3)c2CC2CC2)cc1F (stereo not drawn) | in the range around 550 nM
53 | N[S+](=O)([O-])c1ccc(Cc2c(-c3ccc(F)c(C4=Cc5ccccc5C4)c3)nn(-c3nc(C(=O)O)cs3)c2CC2CC2)cc1F | < 100 nM
54 | NS(=O)(=O)c1ccc(Cc2c(-c3cccc(-c4nc5ccccc5[nH]4)c3)nn(-c3nc(C(=O)O)cs3)c2CC2CC2)cc1F | < 100 nM
55 | Cc1ccc(C#Cc2cccc(-c3nn(-c4nc(C(=O)NC#N)cs4)c(CC4CC4)c3Cc3ccc([SH+](N)[O-])c(F)c3)c2)s1 (stereo not drawn) | in the range around 29000 nM
56 | CC(=O)c1cc(-c2nn(-c3nc(C(=O)O)cs3)c(CC3CC3)c2Cc2ccc([SH+](N)[O-])c(F)c2)ccc1F (stereo not drawn) | < 100 nM
57 | Cc1cc(C)cc(-c2cc(-c3nn(-c4nc(C(=O)O)cs4)c(CC4CC4)c3Cc3ccc([SH+](N)[O-])c(F)c3)ccc2F)c1 (stereo not drawn) | in the range around 550 nM
58 | CC(C)(C)c1ccc(C#Cc2cc(-c3nn(-c4nc(C(=O)O)cs4)c(CC4CC4)c3Cc3ccc([SH+](N)[O-])c(F)c3)ccc2F)s1 (stereo not drawn) | in the range around 550 nM
59 | N[S+](=O)([O-])c1ccc(Cc2c(-c3ccc(F)c(-c4ccc5c(c4)CCCC5)c3)nn(-c3nc(C(=O)O)cs3)c2CC2CC2)cc1F | < 100 nM
60 | Cc1ccc(C#Cc2cccc(-c3nn(-c4nc(CO)cs4)c(CC4CC4)c3Cc3ccc([SH+](N)[O-])c(F)c3)c2)s1 (stereo not drawn) | > 57000 nM
61 | N[SH+]([O-])c1ccc(Cc2c(-c3cccc(-c4ccc(Cl)c(F)c4)c3)nn(-c3nc(C(=O)O)cs3)c2CC2CC2)cc1F (stereo not drawn) | < 100 nM
62 | CN(C)c1ccc(-c2cccc(-c3nn(-c4nc(C(=O)O)cs4)c(CC4CC4)c3Cc3ccc([SH+](N)[O-])c(F)c3)c2)cc1 (stereo not drawn) | < 100 nM
63 | CC(C)c1ccc(-c2cccc(-c3nn(-c4nc(C(=O)O)cs4)c(CC4CC4)c3Cc3ccc([SH+](N)[O-])c(F)c3)c2)cc1 (stereo not drawn) | < 100 nM
